Columns and labels:
[1] = Phase I clinical trial: plasma pharmacokinetics; format: in vivo, human; settings: for AUC / Cmax: oral
Protocol: (§1) Adult patients with histologically confirmed advanced solid tumors were enrolled in a 3+3 dose escalation Phase I study evaluating 3 intermittent schedules of administration for compound A: QW (once weekly), QD×3d QW (3 days on 4 days off), and QD×5d QW (5 days on 2 days off), in comparison with daily dosing (QD). Safety, maximum tolerated dose (MTD), pharmacokinetics (PK) and preliminary antitumor activity were evaluated.

[2] = Phase I clinical trial: grade 3 or greater treatment-emergent adverse events (Table 9); format: in vivo
Protocol: as §1
Pharmacodynamic (PD) endpoints were evaluated in surrogate (peripheral blood cells [PBCs], skin) and tumor tissues for the phosphorylation of TORC1-dependent markers (4EBP1/S6), and TORC2-dependent markers (AKT/PRAS40). 50 patients were treated in 3 intermittent dosing regimens; 21 in 6 cohorts ranging 7-40 mg QW, 20 in 5 cohorts ranging 6-20 mg QD×3d QW, and 9 in 3 cohorts ranging 7-13 mg QD×5d QW. […] The MTD for intermittent dosing was not reached. All adverse events (AEs) reported were reversible. The most common (≧20%, n=35) AEs considered possibly related to compound A reported in all 3 dosing regimens included nausea (51%), hyperglycemia (37%), mucosal inflammation (29%), rash (23%), asthenia (23%), vomiting (26%), and diarrhea (20%). The majority of AEs considered possibly related to compound A in any regimen were Grade 1 or 2. The only reported Grade≧3 AE (≧5%) possibly related to compound A in 3 regimens was lymphopenia (6%). Tables 4-9 show summaries of observed adverse events for various treatment regimens of the invention.

CC(C)n1nc(-c2ccc3oc(N)nc3c2)c2c(N)ncnc21 [compound A]
AUC ([1]; human, plasma, 6 mg QD): 8 µM·h | Cmax ([1]; human, plasma, 6 mg QD): 150 nM | AUC ([1]; human, plasma, 10 mg Q5D): 10 µM·h | Cmax ([1]; human, plasma, 10 mg Q5D): 250 nM | AUC ([1]; human, plasma, 13 mg Q5D): 13 µM·h | Cmax ([1]; human, plasma, 13 mg Q5D): 300 nM | AUC ([1]; human, plasma, 16 mg Q3D): 8 µM·h | Cmax ([1]; human, plasma, 16 mg Q3D): 350 nM | AUC ([1]; human, plasma, 20 mg Q3D): 10 µM·h | Cmax ([1]; human, plasma, 20 mg Q3D): 400 nM | AUC ([1]; human, plasma, 30 mg QW): 5 µM·h | Cmax ([1]; human, plasma, 30 mg QW): 600 nM | AUC ([1]; human, plasma, 40 mg QW): 6.5 µM·h | Cmax ([1]; human, plasma, 40 mg QW): 700 nM | Tmax ([1]; human, plasma, oral doses, patients): 0.5 to 4 h | half-life ([1]; human, plasma, oral doses, patients, read-out: mean elimination plasma t1/2 (converted)): 8 h | Plasma exposures (Cmax and AUC0-24) versus dose ([1]; oral doses): dose-linear plasma PK | Grade≧3 AE (≧5%) possibly related: lymphopenia ([2]; 3 regimens): 6% | Abdominal pain upper, Grade 3 or greater TEAE ([2]; Total QD Dosing, N = 25): 1 (4%) | Anaemia, grade 3 or greater TEAE ([2]; Total QD Dosing, N = 25): 1 (4%) | Aspartate aminotransferase increased, Grade 3 or greater TEAE ([2]; Total QD Dosing, N = 25): 0 (0%) | Asthenia, grade 3 or greater TEAE ([2]; Total QD Dosing, N = 25): 0 (0%) | Catheter related infection, Grade 3 or greater TEAE ([2]; Total QD Dosing, N = 25): 1 (4%) | Cellulitis, Grade 3 or greater TEAE ([2]; Total QD Dosing, N = 25): 1 (4%) | Diarrhoea, grade 3 or greater TEAE ([2]; Total QD Dosing, N = 25): 1 (4%) | Disease progression, grade 3 or greater TEAE ([2]; Total QD Dosing, N = 25): 0 (0%) | Enterocutaneous fistula, Grade 3 or greater TEAE ([2]; Total QD Dosing, N = 25): 1 (4%) | Gamma-glutamyltransferase increased, Grade 3 or greater TEAE ([2]; Total QD Dosing, N = 25): 0 (0%) | Gastroenteritis, Grade 3 or greater TEAE ([2]; Total QD Dosing, N = 25): 0 (0%) | Hyperglycaemia, grade 3 or greater TEAE ([2]; Total QD Dosing, N = 25): 4 (16%) | Hypokalaemia, grade 3 or greater TEAE ([2]; Total QD Dosing, N = 25): 2 (8%) | Hyponatraemia, grade 3 or greater TEAE ([2]; Total QD Dosing, N = 25): 2 (8%) | Lymphopenia, grade 3 or greater TEAE ([2]; Total QD Dosing, N = 25): 2 (8%) | Pancreatitis acute, Grade 3 or greater TEAE ([2]; Total QD Dosing, N = 25): 1 (4%) | Pleural effusion, Grade 3 or greater TEAE ([2]; Total QD Dosing, N = 25): 1 (4%) | Pruritus, grade 3 or greater TEAE ([2]; Total QD Dosing, N = 25): 2 (8%) | Rash macular, Grade 3 or greater TEAE ([2]; Total QD Dosing, N = 25): 0 (0%) | Rash, grade 3 or greater TEAE ([2]; Total QD Dosing, N = 25): 7 (28%) | Somnolence, Grade 3 or greater TEAE ([2]; Total QD Dosing, N = 25): 1 (4%) | Thrombocytopenia, grade 3 or greater TEAE ([2]; Total QD Dosing, N = 25): 2 (8%) | Urinary tract infection, Grade 3 or greater TEAE ([2]; Total QD Dosing, N = 25): 0 (0%) | Abdominal pain upper, Grade 3 or greater TEAE ([2]; Total QDx3d QW, N = 14): 0 (0%) | Anaemia, grade 3 or greater TEAE ([2]; Total QDx3d QW, N = 14): 0 (0%) | Aspartate aminotransferase increased, Grade 3 or greater TEAE ([2]; Total QDx3d QW, N = 14): 0 (0%) | Asthenia, grade 3 or greater TEAE ([2]; Total QDx3d QW, N = 14): 1 (7%) | Catheter related infection, Grade 3 or greater TEAE ([2]; Total QDx3d QW, N = 14): 0 (0%) | Cellulitis, Grade 3 or greater TEAE ([2]; Total QDx3d QW, N = 14): 0 (0%) | Diarrhoea, grade 3 or greater TEAE ([2]; Total QDx3d QW, N = 14): 1 (7%) | Disease progression, grade 3 or greater TEAE ([2]; Total QDx3d QW, N = 14): 1 (7%) | Enterocutaneous fistula, Grade 3 or greater TEAE ([2]; Total QDx3d QW, N = 14): 0 (0%) | Gamma-glutamyltransferase increased, Grade 3 or greater TEAE ([2]; Total QDx3d QW, N = 14): 1 (7%) | Gastroenteritis, Grade 3 or greater TEAE ([2]; Total QDx3d QW, N = 14): 1 (7%) | Hyperglycaemia, grade 3 or greater TEAE ([2]; Total QDx3d QW, N = 14): 1 (7%) | Hypokalaemia, grade 3 or greater TEAE ([2]; Total QDx3d QW, N = 14): 0 (0%) | Hyponatraemia, grade 3 or greater TEAE ([2]; Total QDx3d QW, N = 14): 0 (0%) | Lymphopenia, grade 3 or greater TEAE ([2]; Total QDx3d QW, N = 14): 1 (7%) | Pancreatitis acute, Grade 3 or greater TEAE ([2]; Total QDx3d QW, N = 14): 0 (0%) | Patients Reporting at Least One Grade 3 or Greater TEAE ([2]; Total QDx3d QW, N = 14): 7 (50%) | Pleural effusion, Grade 3 or greater TEAE ([2]; Total QDx3d QW, N = 14): 0 (0%) | Pruritus, grade 3 or greater TEAE ([2]; Total QDx3d QW, N = 14): 0 (0%) | Rash macular, Grade 3 or greater TEAE ([2]; Total QDx3d QW, N = 14): 1 (7%) | Rash, grade 3 or greater TEAE ([2]; Total QDx3d QW, N = 14): 0 (0%) | Somnolence, Grade 3 or greater TEAE ([2]; Total QDx3d QW, N = 14): 0 (0%) | Thrombocytopenia, grade 3 or greater TEAE ([2]; Total QDx3d QW, N = 14): 0 (0%) | Urinary tract infection, Grade 3 or greater TEAE ([2]; Total QDx3d QW, N = 14): 1 (7%) | Abdominal pain upper, Grade 3 or greater TEAE ([2]; Total QDx5d QW, N = 6): 0 (0%) | Anaemia, grade 3 or greater TEAE ([2]; Total QDx5d QW, N = 6): 0 (0%) | Aspartate aminotransferase increased, Grade 3 or greater TEAE ([2]; Total QDx5d QW, N = 6): 0 (0%)

Reference: US20130209543A1, “ENHANCED TREATMENT REGIMENS USING MTOR INHIBITORS” (Intellikine LLC, priority 2011, published 2013)
